Source: US20230025843A1, “MAMMAL KINASE INHIBITORS TO PROMOTE IN VITRO EMBRYOGENESIS INDUCTION OF PLANTS” (CONSEJO SUPERIOR DE INVESTIGACIONES CIENTIFICAS (CSIC), priority 2019, published 2023)
Several values for one entry are separate records, joined by “and”; a condition that tells them apart may be missing. Identical values can stand only once.

What was measured:
Type in all cases: cell-based
[1] = test system: B. napus microspore cultures; experiment: Microspore embryogenesis induction in isolated microspore culture (proembryos at 4 days), liquid medium; conditions: for concentrations that provided an improvement of embryogenesis initiation yield: B. napus microspore cultures, proembryos at 4 days vs control, 3-4 concentrations tested; for increase in the percentage of proembryos: 4 days, vs control cultures normalized to 100%
Description: B. napus L. (rapeseed) cv. ‘Topas’ line DH407 plants were used as donor plants. Rapeseed seeds were germinated and grew under controlled conditions (relative humidity 60%, 15° C. under long-day photoperiod 16 h light and 8 h dark at 10° C.) in a growth chamber in pots containing a mixture of organic substrate and vermiculite (2/1, v/v).
Flower buds containing vacuolated microspores, the most responsive stage for microspore induction, were isolated for microspore culture as previously described (Prem et al., 2012 BMC Plant Biology 12, 127). The selected buds were surface-sterilized in 5.0% (v/v) commercial bleach (5% active chlorine) for 20 min and then rinsed 6-7 times with sterile distilled water. Ten to 15 buds were crushed using a cold mortar and pestle in 5 ml of cold NLN-13 medium containing 13% sucrose (w/v). The suspension was filtered through 48 μm nylon mesh and the filtrate collected in 15-ml falcon centrifuge tubes. The crushed buds were rinsed with 5 ml NLN-13 to make up the volume to 10 ml and the filtrate was then centrifuged at 1100 rpm for 5 min at 4° C. The pellet was re-suspended in 10 ml of cold NLN-13 and centrifuged as mentioned above. This process was repeated three times for washing of the microspores. The final pellet was suspended in the NLN-13, and the cell density was adjusted to 10,000 cells per ml. The cell suspension was then poured into 90-mm Petri dishes (10 ml per Petri dish) and cultured in darkness. For embryogenesis induction, microspore cultures were subjected to an in vitro stress treatment of 32° C. for 15 days. In response to the inductive treatment, responsive microspores divide and produce multicellular structures or proembryos, still confined within the microspore wall (exine). Such structures are considered to be the first sign of embryogenesis initiation; they can be found after 4-6 days in culture. When globular/heart shaped embryos were observed (around 20 days), cultures were shifted to 25° C. on a gyratory shaker at 60 rpm until complete development and maturation of the embryos was observed (FIG. 1), normally around 30 days in culture.
The compounds were added to the microspore liquid culture media by using stock solutions of 10 mM in DMSO. Appropriate volumes of stock solutions of the drugs were added to the culture media to get the selected working concentrations of the inhibitors, keeping DMSO concentration below 0.2%. • In B. napus microspore cultures: 4-benzyl-2-methyl-1,2,4-thiadozilidine-3,5-dione (TDZD8), 5-(2-Morpholinethylimino)-2,3-diphenyl-2,5-dihydro-1,2,4-thiadiazole (VP3.15), 3-acetyl-4-(1-methyl-1H-indol-3-yl)-1H-pirrol-2,5-dione (VP3.36), 4-hydroxy-1-ethyl-N′-palmitoyl-2-oxo-1,2-dihydroquinoline-3-carbohydrazide (VP0.7), N-(6-methylbenzothiazole-2-yl)-4-morpholinobenzamide (JZ1.3), N-(6-fluorobenzothiazole-2-yl)-4-morpholinobenzamide, (JZ1.6) and N-(6-bromobenzothiazole-2-yl)-4-morpholinobenzamide (JZ1.24). and (E,Z)-3-(morpholinoimino)indolin-2-one (IGS4.75) were tested at 3-4 different concentrations, ranging from 0.5 to 5 μM. • In H. vulgare microspore cultures: 4-benzyl-2-methyl-1,2,4-thiadozilidine-3,5-dione (TDZD8) and N-(6-bromobenzothiazole-2-yl)-4-morpholinobenzamide (JZ1.24) inhibitors at the selected concentrations (2.5 μM and […], respectively) were tested.
The compounds were added from culture initiation and their effect on embryogenesis efficiency was assessed. Several plates of the same cultures were kept without the inhibitors, as controls.
Embryogenesis induction was quantified in control and treated-cultures by the number of proembryos formed (considered the first sign of embryogenesis initiation), as previously described, and by the number of embryos produced after 40 days. Proembryos were easily identified under inverted microscope in 4 day-culture plates as rounded multicellular structures with higher size and density than microspores, still surrounded by the exine (special microspore wall). […]

[2] = test system: H. vulgare microspore cultures; experiment: Microspore embryogenesis induction in isolated microspore culture (proembryos at 4 days, embryos at 40 days), liquid medium; conditions: for increase in proembryo formation: 4 days; for increment of total number of embryos produced per plate: 40 days, vs control, selected concentrations (2.5 μM TDZD8, 5 μM JZ1.24)
Description: H. vulgare L. cv. Igri plants were used as donor plants. Seeds were vernalized in soil for one month at 4° C., and then transferred for one month in a plant growth chamber at 18° C. for germination and growth. Finally, plants were transferred to a greenhouse under 18° C. temperature.
Spikes containing microspores at the stage of vacuolated microspore, the most responsive stage for embryogenesis induction, were collected and surface sterilized by immersion in 5% bleach for 20 min, followed by 4 washes with sterile distilled water. Isolated microspore culture was settled as previously described (Rodŕiguez-Serrano et al., 2012, Journal of Experimental Botany 63(5), 2007-2024). The sterilized spikes were pre-treated at 4° C. for 21-24 days as stress treatment to induce microspore embryogenesis. Microspore were isolated blending spikes in 20 ml of pre-cooled 0.4 M mannitol at 4° C., using a Waring Blender pre-cooled in a refrigerator at −20° C., and the extract was filtered through a 100 μm nylon mesh into a beaker pre-cooled at −20° C. The collected microspore suspension was transferred into a 50 ml tube and centrifuged at 800 rpm for 10 min at 4° C. After removing the supernatant, the pellet was resuspended in 4 ml of pre-cooled 0.55 M maltose and transferred in 15 ml falcon tube. 1.5 ml of 0.4 M mannitol solution were cautiously added unmixed. After gradient centrifugation at 800 rpm for 10 min at 4° C., the interphase band consisting of an almost pure population of vacuolated microspores was resuspended in 0.4M mannitol solution giving a final volume of 10 ml. After counting cells in the Neubauer chamber, the pelleted microspores were diluted in an appropriate volume of KBP medium to obtain a cell density of 1.1×10^5 cells per ml, and plated in 30 mm Petri dishes, at a volume of 1 ml per plate. Then, microspore cultures were incubated at 25° C. in the dark, and microspores reprogrammed and produced multicellular structures/proembryos that can be found after 4-6 days in culture, as the first sign of embryogenesis initiation. Proembryos further developed and produced coleoptylar and mature embryos (FIG. 2), which were observed after 30 days.
The compounds were added to the microspore liquid culture media by using stock solutions of 10 mM in DMSO. […]
The compounds were added from culture initiation and their effect on embryogenesis efficiency was assessed. […]
Embryogenesis induction was quantified in control and treated-cultures by the number of proembryos formed (considered the first sign of embryogenesis initiation), as previously described, and by the number of embryos produced after 40 days. […]

[3] = test system: proembryos of B. napus microspore cultures; experiment: DAPI staining of proembryos, fluorescence microscopy of squash preparations; conditions: 4 days in culture
Description: In order to evaluate whether proembryo structures of treated cultures, identified under the inverted microscope for quantification, were actually dividing microspores, similar to the same structures in control cultures, a simply staining technique was performed to visualize nuclei inside proembryos. Samples from control and treated-cultures of 4 days, containing proembryos, were stained with 10 μg/mL 4′,6-diamidine-2-phenyl indole dihydrochloride (DAPI). Squash preparations were analysed under fluorescence microscopy using UV excitation for observing nuclei.

SMILES | concentrations that provided an improvement of embryogenesis initiation yield [1] | also measured
CC(=O)C1=C(c2cn(C)c3ccccc23)C(=O)NC1=O [VP3.36, 3-acetyl-4-(1-methyl-1H-indol-3-yl)-1H-pirrol-2,5-dione] | 2.5 µM | –
O=C(Nc1nc2ccc(F)cc2s1)c1ccc(N2CCOCC2)cc1 [JZ1.6, N-(6-fluorobenzothiazole-2-yl)-4-morpholinobenzamide] | 1 µM | –
CCCCCCCCCCCCCCCC(=O)NNC(=O)c1c(O)c2ccccc2n(CC)c1=O [VP0.7, 4-hydroxy-1-ethyl-N′-palmitoyl-2-oxo-1,2-dihydroquinoline-3-carbohydrazide] | 5 µM | –
O=C(Nc1nc2ccc(Br)cc2s1)c1ccc(N2CCOCC2)cc1 [JZ1.24, N-(6-bromobenzothiazole-2-yl)-4-morpholinobenzamide] | 2.5 µM | increase in proembryo formation ([2]; 5 μM): 47%; increment of total number of embryos produced per plate [2]: 22%; increase in the percentage of proembryos ([1]; 2.5 μM): 27.5%
c1ccc(-c2nc(=NCCN3CCOCC3)sn2-c2ccccc2)cc1 [VP3.15, 5-(2-Morpholinethylimino)-2,3-diphenyl-2,5-dihydro-1,2,4-thiadiazole] | 2.5 µM | –
Cn1sc(=O)n(Cc2ccccc2)c1=O [TDZD8, 4-benzyl-2-methyl-1,2,4-thiadozilidine-3,5-dione, reference compound] | 0.5 µM and 1 µM | increase in proembryo formation ([2]; 2.5 μM): 27%; increment of total number of embryos produced per plate [2]: 15%; increase in the percentage of proembryos ([1]; 0.5 μM): 20%; nuclei in proembryos (DAPI staining) [3]: proembryos contain several nuclei
Cc1ccc2nc(NC(=O)c3ccc(N4CCOCC4)cc3)sc2c1 [JZ1.3, N-(6-methylbenzothiazole-2-yl)-4-morpholinobenzamide] | 5 µM | –
O=C1Nc2ccccc2C1=NN1CCOCC1 [IGS4.75, (E,Z)-3-(morpholinoimino)indolin-2-one] | 5 µM | –
